# Assay: Measurement of mRNA encapsulation in lipid nanoparticles (Quant-iT Ribogreen)
# Type: physicochemical
# Details: LNP cationic lipid/DSPC/cholesterol/stealth lipid, N:P 4:1, leptin mRNA
# Method: All equipment and disposable supplies are certified free of RNase activity by the manufacturer or rendered RNase free by use of the RNaseZap reagent (LifeTechnologies). mRNA is encapsulated at a cationic lipid amine to mRNA phosphate (N:P) molar ratio of 4:1. Lipids (cationic lipid, DSPC, cholesterol and lipidated PEG or stealth lipid) are dissolved in ethanol. The molar ratios are 40:10:38:2, respectively. The mixture is sonicated briefly, then gently agitated for 5 minutes and then maintained at 37° C. until use. mRNA is exchanged into citrate buffer pH 5.8-6.0 by use of Amicon Ultra-15 centrifugal concentrators, and the final concentration is adjusted to 0.5 mg/ml and held at 37° C. until use. An equal volume of lipids in ethanol, mRNA in citrate buffer, and citrate buffer alone are drawn into disposable syringes. Tubing leading from syringes containing lipids and mRNA are attached to the T junction, and tubing leading from the syringe containing citrate buffer alone is paired with the tubing exiting the T-junction over a collection vessel containing a stir bar on an active stir plate. Syringes are placed in a syringe pump set to expel contents at a flow rate of 1 ml per minute.
# The pump is activated, and the collected mRNA in lipid nanoparticles is transferred to SnakeSkin dialysis tubing (10,000 MWCO, Thermo Scientific). Material is dialyzed against RNAse- and pyrogen-free 1× phosphate buffered saline overnight at 4° C.
# Percent encapsulation of mRNA in lipid nanoparticles is determined using the Quant-iT Ribogreen RNA Assay kit (Life Technologies). The LNP-mRNA suspension is assayed in buffer (mRNA outside the particle), and buffer plus Triton X-100 detergent (total mRNA). The difference calculated is the mRNA inside the particle. Prepare a 1000 ng/mL stock from the RNA provided in the kit and use this to generate a standard curve (0 ng/ml, 15.63-1000 ng/ml) in TE and TE+0.75% Triton X-100. Prepare LNP-mRNA samples in TE buffer and TE buffer+0.75% Triton X-100 with appropriate dilution so that reading is in the range of standard curve (400-2,000 fold). In a 384-well plate (Costar non-treated #3573) add 0.04 ml of standard (in duplicate) or sample (in triplicate) per well. Dilute Ribogreen reagent 240-fold in TE buffer and add 0.06 ml per well. Mix contents of wells and measure fluorescence (excitation=480 nm, emission=520 nm). Subtract background values (no RNA) from standard and test sample values and determine the concentrations of RNA in the samples using the standard curves. Determine the percent encapsulation of the sample by dividing the difference in concentrations between sample+triton and sample in buffer alone by the sample+triton concentration.
smiles,measurement,value
"CCCCC/C=C\C/C=C\CCCCCCCCOc1ccc(OCCCCCCCC/C=C\C/C=C\CCCCC)c(COC(=O)CCCN(C)C)c1 [Example 1, 2,5-bis((9Z,12Z)-octadeca-9,12-dien-1-yloxy)benzyl 4-(dimethylamino)butanoate]",% encapsulation (mRNA Leptin),73.3%

# Reference: patent US10844002B2, “Lipids and lipid compositions for the delivery of active agents” (priority 2014, dated 2020)
